Test results published in patent US4381303A, “1,4,9,10-Tetrahydro-pyrazolo [4,3-]pyrido[-3,2-b][1,4]diazepin-10-ones” (Dr. Karl Thomae GmbH, priority 1981, dated 1983).

Assays:
[1] = system: Pain of Inflammation on the Back Paw of the Rat; assay: Activity against the pain of inflammation on the back paw of the rat (RANDALL-SELITTO); assay type: in vivo, rat (male Chbb:THOM-rats); conditions: po, 1.5 h, dose at which pain threshold rises by 50% vs controls, esophageal tube, 1% methyl cellulose, 90 minutes after phlogistic, 90 minutes before determination, linear regression
Procedure: (§1) were tested with regard to analgesic activity in the rat, analgesic activity in the mouse, and acute toxicity in the mouse:
1. Activity against the Pain of Inflammation on the Back Paw of the Rat
The activity against the pain caused by inflammation was tested according to the method of RANDALL-SELITTO [Arch. Int. Pharmacodyn., 111, 409 (1957)]. Male Chbb:THOM-rats having body weights of from 100 to 130 grams received a subplantar injection of 0.1 ml of a suspension of 1,12 g of dry yeast in 18.9 ml of a 5.5% glucose solution into a back paw.
At 90 minutes after injection of the phlogistic, that is, ninety minutes before determination of the pain threshold, the animals received various doses of the test substances as a trituration in 1% methyl cellulose (1 ml/100 gm of animal) through an esophageal tube. Control animals received corresponding volumes of the vehicle. The pain threshold was determined in the rat in terms of the grams of bearing pressure on a paw, based on the weight of the animal.
From the pain threshold, measured according to the various doses of the test substance, and with linear regression analysis according to LINDER [Statistische Methoden, 4th ed., pp. 148-162, Birkhauser, Basel, 1964] an ED50 was determined. The ED50 dose is one in which the pain threshold rises by 50%, as compared to the controls.

[2] = system: Sensitivity of the Mouse in the Hot Plate Test; assay: Activity against the sensitivity of the mouse in the hot plate test (CHEN and BECKMAN); assay type: in vivo, mouse (male Chbb:NMRI (SPF)-mice); conditions: po, dose increasing time of reaction by 100%, hot plate 52° C., esophageal tube, 1% methyl cellulose, linear regression
Procedure: as §1
2. Activity against the Sensitivity of the Mouse in the Hot Plate Test
The test was performed according to the method described by CHEN and BECKMAN [Science, 113, 631 (1951)] in male Chbb:NMRI (SPF)-mice with an average weight of 20 grams.
The test substances were administered as trituration in 1% methyl cellulose (0.1 ml/10 gm of mouse) by means of an esophageal tube. Before treatment with the test substances, the animals were twice put on the hot plate at intervals of 30 to 120 minutes, whereby their individual times of reaction were measured. After treatment with a test substance, the times of reaction of the animals were again measured in intervals of 30 to 120 minutes.
From the average maximum increase of the time of reaction obtained after treatment with different doses, and after linear regression analysis according to LINDER, an ED100 dose was calculated. The ED100 dose is one which increased the time of reaction by 100%.

Acute toxicity in mice = assay type: in vivo; conditions: in vivo, po; mouse, esophageal tube, 1% methyl cellulose; deaths within 14 days; LITCHFIELD and WILCOXON
Procedure: as §1
(§2) 3. Acute Toxicity in Mice
(§3) The acute toxicity was determined in Chbb:NMRI (SPF)-mice of both sexes, having an average body weight of 20 grams. The test compounds were administered as a trituration in 1% methyl cellulose (0.2 ml/10 gm of animal) by means of an esophageal tube. The calculation of the LD50 values was effected according to the method of LITCHFIELD and WILCOXON [J. Pharmacol. Exp. Ther., 96, 99 (1949)], based upon the percentage of animals which died within 14 days after administration of different doses.

Chbb:NMRI (SPF)-mice = assay: Acute toxicity in mice; assay type: in vivo; conditions: dose 1000 mg/kg (footnote * of Table 3), mouse, esophageal tube, within 14 days
Procedure: as §1, §2, §3

Cc1nn(C)c2c1Nc1ncccc1NC2=O [A, 1,3-dimethyl-1,4,9,10-tetrahydro-pyrazolo[4,3-e]pyrido[3,2-b][1,4]diazepin-10-one]
ED50 [1]: 26 mg/kg
ED100 [2]: 15 mg/kg
LD50 at 336 h (Acute toxicity in mice): 152 mg/kg

CCCCN1C(=O)c2c(c(C)nn2C)Nc2ncccc21 [F, 9-(n-butyl)-1,3-dimethyl-1,4,9,10-tetrahydro-pyrazolo[4,3-e]pyrido[3,2-b][1,4]diazepin-10-one]
ED50 [1]: 139 mg/kg
ED100 [2]: 87 mg/kg
animals died after administration of this dose (Chbb:NMRI (SPF)-mice): 1 out of 8
LD50 at 336 h (Acute toxicity in mice): > 1000 mg/kg

Cc1nn(C)c2c1Nc1ncccc1N(C)C2=O [B, 1,4,9,10-tetrahydro-1,3,9-trimethyl-pyrazolo[4,3-e]pyrido[3,2-b][1,4]diazepin-10-one]
ED50 [1]: 11 mg/kg
ED100 [2]: 30 mg/kg
LD50 at 336 h (Acute toxicity in mice): 175 mg/kg

Cc1nn(C)c2c1N(C)c1ncccc1N(C)C2=O [D, 1,4,9,10-tetrahydro-1,3,4,9-tetramethyl-pyrazolo[4,3-e]pyrido[3,2-b][1,4]diazepin-10-one]
ED50 [1]: 7.4 mg/kg
LD50 at 336 h (Acute toxicity in mice): 225 mg/kg

CCN1C(=O)c2c(c(C)nn2C)N(C)c2ncccc21 [E, 9-ethyl-1,4,9,10-tetrahydro-1,3,4-trimethyl-pyrazolo[4,3-e]pyrido[3,2-b][1,4]diazepin-10-one]
ED50 [1]: 5.9 mg/kg
LD50 at 336 h (Acute toxicity in mice): 202 mg/kg

CCN1C(=O)c2c(c(C)nn2C)Nc2ncccc21 [C, 1,3-dimethyl-9-ethyl-1,4,9,10-tetrahydro-pyrazolo[4,3-e]pyrido[3,2-b][1,4]diazepin-10-one]
ED50 [1]: 28 mg/kg
ED100 [2]: 28 mg/kg
LD50 at 336 h (Acute toxicity in mice): 171 mg/kg
